Measured values from the METLIN SMRT retention time set (Domingo-Almenara et al. 2019).

Assay: gradient 5% acetonitrile 3 min, to 50% in 2 min, to 85% in 15 min, held 3 min, 100 µL/min
Conditions: column: Zorbax Extend-C18 2.1 x 50 mm; eluents: water / acetonitrile, 0.1% formic acid
In short: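 Retention time was recorded from adduct peaks, which were picked computationally and each inspected manually. Pure standards ran in mixtures of ~100 molecules on HPLC coupled to a quadrupole time-of-flight mass spectrometer, in positive and negative ionization mode, through a Zorbax Extend-C18 column (2.1 × 50 mm, 1.8 μm) at 100 μL/min. Eluents were water and acetonitrile, each with 0.1% formic acid.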

Row | SMILES | RP-LC retention time
1 | COc1cc(OC)c(NC(=O)NC2(c3nc(C)no3)CCCCC2)cc1Cl | 858 s
2 | COc1cc(=O)n2c(c1C(=O)Nc1cccc3c1CCCC3)CCCC2 | 762 s
3 | COC(=O)C1=CN(c2ccc(F)c(F)c2)c2ccc(F)cc2S1(=O)=O | 854 s
4 | CCc1nc2cccnc2n1CCN1CCN(C(=O)Nc2ccc(C)c(Cl)c2)CC1 | 742 s
5 | O=C(NCc1ccc(Br)cc1)C1CCN(C(=O)C2Sc3ccccc3NC2=O)CC1 (configuration not stated) | 782 s
6 | CC(C)(C)c1csc(NC(=O)C2CC(=O)N(c3n[nH]c4cccc(F)c34)C2)n1 (configuration not stated) | 838 s
7 | O=C(Nc1cccnc1Cl)C1CCCN(c2ncnc3c2nc2n3CCCCC2)C1 (configuration not stated) | 717 s
8 | O=C(NC1CC1)c1ccnc(N2CCNC(c3ccccc3)C2)c1 (configuration not stated) | 583 s
9 | C=Cc1ccc(Cn2nc3c(S(=O)(=O)N4CCN(c5ccc(F)cc5)CC4)cccn3c2=O)cc1 | 1010 s
10 | CC(C)NC(=O)C(=O)NCc1n[nH]c(=O)c2ccccc12 | 621 s
11 | COc1ccc2c(c1)C1(CCN(C(=O)NC(C)(C)C)C1)C(=O)N2C (configuration not stated) | 753 s
12 | CC1CCCN(CC2CCN(S(=O)(=O)Cc3ccccc3Cl)CC2)C1 (configuration not stated) | 662 s
13 | Cn1cnc(S(=O)(=O)N2CC(n3cc(C(=O)NCC4CC4)nn3)C2)c1 | 622 s
14 | CCCCNC(=O)C1Cc2cc(S(=O)(=O)N3CCCCC3)ccc2N1C(=O)CC (configuration not stated) | 885 s
15 | Cc1cc(=O)n(CC(=O)Nc2ccc3c(c2)OCCO3)c(N2CCOCC2)n1 | 634 s
16 | CC(C)Cn1c(=O)c2cc(C(=O)N(C)CC(=O)N3CCCCCC3)nn2c2ccccc21 | 891 s
17 | COc1ccc2sc(N(CCN(C)C)C(=O)Cc3ccccc3)nc2c1 | 601 s
18 | COCCN1C(=O)CC[C@]2(C(=O)NCc3ccc(OC)cc3OC)CCCC[C@@H]12 | 698 s
19 | CSc1ccccc1NC(=O)Cc1csc(NC(=O)c2ncccn2)n1 | 657 s
20 | O=C(CN1CCN(Cc2ccccc2)C1=O)NCc1ccccc1Br | 824 s
21 | CCC(C(=O)NCCCN1CCN(CC)CC1)n1nc(C)c2sc3ccccc3c2c1=O (configuration not stated) | 624 s
22 | CN(C)C(=O)c1ccc2c(c1)N(CC(=O)NCCC1=CCCCC1)C(=O)C1CCCCN21 (configuration not stated) | 830 s
23 | Cc1cc(C)cc(NC(=O)CN2C(=O)C(C(=O)N3CCCC3)Sc3ccccc32)c1 (configuration not stated) | 1070 s

Row | SMILES | RP-LC retention time
24 | CCn1cc(CN2CCC(C(=O)NCc3ccc(C)o3)CC2)c2ccccc21 | 690 s
25 | COCC1(O)CCOC2(CCN(Cc3cccc(F)c3F)CC2)C1 (configuration not stated) | 589 s
26 | N#Cc1ccc(-c2nc(-c3ccc4c(c3)nnn4CCC(=O)N3CCOCC3)no2)c(F)c1 | 674 s
27 | O=C(Cn1c(N2CCCCC2)nc2ccccc2c1=O)NCc1ccc(Cl)cc1 | 946 s
28 | Cc1c(Cl)cccc1NC(=O)Cn1cnc2nc(N3CCOCC3)ncc2c1=O | 678 s
29 | COCCN(C)C(=O)c1cn(C2CN(S(=O)(=O)c3c(C)noc3C)C2)nn1 | 703 s
30 | O=C1C(c2ccncc2)N(Cc2ccco2)C(=O)CN1c1ccccc1 (configuration not stated) | 628 s
31 | CCOC(=O)CNC(=O)c1cn(CC)nc1S(=O)(=O)N1CCN(c2ccccc2OCC)CC1 | 962 s
32 | O=C(Nc1nc(-c2ccccc2)cs1)c1ccncc1 | 734 s
33 | O=C(c1nc2ccccn2c1-c1ccsc1)N1CCCCC1 | 665 s
34 | CCc1ccc(-n2c(CN3CCN(C(=O)NC(C)(C)C)CC3)nc3cccnc32)cc1 | 687 s
35 | CC1CCN(S(=O)(=O)c2ccc(-c3nnc(C(=O)NCCCN4CCCCCC4)o3)cc2)CC1 | 712 s
36 | Cc1ccc2c(c1)NN=C(C(=O)N1CCOCC1)S2(=O)=O | 639 s
37 | CNC(=O)Nc1ccc(C2(C(=O)NCc3ccco3)CCC2)cc1 | 670 s
38 | COc1ccc(Cl)cc1C(=O)N1CCN(c2cc(-c3cccs3)[nH]n2)CC1 | 812 s
39 | CCCn1cc(CCNC(=O)Cc2cccc(Cl)c2)c2cccnc21 | 799 s
40 | COc1ccc(Cl)cc1NC(=O)CN1C(=O)CCSc2ccccc21 | 956 s
41 | CC1CCN(C(=O)C2CCN(S(=O)(=O)c3ccc4c(c3)CCCC(=O)N4)CC2)CC1 | 744 s
42 | O=C(Cc1cccs1)Nc1cc(F)c2nc(N3CCOCC3)ccc2c1 | 793 s
43 | COc1ccc(NC(=O)C2(CCO)CCN(c3ncccn3)C2)cn1 (configuration not stated) | 706 s
44 | Cn1cc(Cl)c(C(=O)N2CCCC2c2cccc(F)c2)n1 (configuration not stated) | 807 s
45 | COC1CCC12CCN(C(=O)c1sc(C)nc1C)CC2 (configuration not stated) | 728 s

Other lines, results leading:

Row | RP-LC retention time | SMILES
46 | 604 s | NC(=O)Cc1ccc(NS(=O)(=O)c2cccs2)cc1
47 | 1210 s | O=c1c2sccc2n(Cc2nc(-c3ccc(Cl)c(F)c3)no2)c(=O)n1Cc1ccccc1
48 | 521 s | O=C(NCCn1nc(-n2ccnc2)ccc1=O)c1cccc(-n2cnnn2)c1
49 | 919 s | CCc1noc(-c2ccc(-n3cnc(C(=O)NC(C)c4ccccc4)c3)nc2)n1 (configuration not stated)
50 | 595 s | Cc1ccc2c(Nc3ccc(S(N)(=O)=O)cc3)c(C(=O)N3CCCCCC3)cnc2n1
51 | 756 s | Cc1noc2nc(C)n(CC(=O)NC(C)c3ccccc3)c(=O)c12 (configuration not stated)
52 | 1030 s | COc1ccc(-n2ncc3c(=O)n(Cc4nc(-c5ccc(F)cc5)no4)cnc32)cc1
53 | 832 s | COc1ccc(-c2cc3c4nnc(SCC(=O)NCc5ccc(SC)cc5)n4ccn3n2)cc1
54 | 738 s | Cc1ccc(CNC(=O)N2CCc3c(c(-c4nc(C)no4)nn3C)C2)cc1
55 | 736 s | COc1ccc(-c2cc3nn(CC(=O)Nc4ccccc4OC)c(=O)n3c(C)n2)cc1
56 | 705 s | COC(=O)c1ccc(NC(=O)CSc2nnc(C)c3cnn(-c4ccccc4)c23)cc1
57 | 1070 s | Cc1ccc(Nc2c(-c3ccccc3O)nc3ccc(Br)cn23)cc1
58 | 741 s | CNC(=O)c1sc2nc(-c3ccc(F)cc3)c(NCCOC)n2c1C
59 | 822 s | Fc1ccc(-c2nc(-c3ccc4nncn4c3)no2)cc1F
60 | 853 s | Cc1cc(-c2nnc(NC(=O)NCc3ccc(Cl)cc3)o2)c(C)o1
61 | 937 s | CCn1ncn2cc(S(=O)(=O)Nc3cc(C)ccc3C)cc2c1=O
62 | 619 s | COc1ccc(Nc2c(-c3ccc(N4CCOCC4)cc3)nc3ncccn23)cc1OC
63 | 661 s | COc1cc(-c2nc3ccc(C)cn3c2Nc2ccc(C)cc2)ccc1O
64 | 1090 s | CCN(CC)S(=O)(=O)c1ccc(Cl)c(-c2nnc(-c3ccc(OC)cc3)o2)c1
65 | 647 s | Cn1c(=O)c2c(ncn2CC(=O)N2CCCn3nc(-c4ccccc4)cc3C2)n(C)c1=O
66 | 713 s | COc1ccc(N(Cc2nnc3n2CCCCC3)C(=O)Nc2ccccc2)c(OC)c1

Row | RP-LC retention time | SMILES
67 | 1000 s | COc1ccc(OC)c(NC(=O)Cn2cccc(-c3nc(-c4ccc(Cl)cc4)no3)c2=O)c1
68 | 1070 s | O=C1CC(c2noc(-c3ccccc3)n2)CN1c1ccc(F)c(Cl)c1 (configuration not stated)
69 | 656 s | CCn1nc(C)c(CCNC(=O)C(C)n2c3ccccc3c3cnn(C)c(=O)c32)c1C (configuration not stated)
70 | 864 s | Cc1cccc(NC(=O)Cn2nc3c(Oc4cccc(F)c4)nccn3c2=O)c1
71 | 973 s | CC(C)Oc1ccc(-c2noc(Cn3ccn(-c4ccc(Cl)cc4)c(=O)c3=O)n2)cc1
72 | 1060 s | COc1ccc(N2CCN(c3cc(SCC(=O)Nc4cccc(Cl)c4C)ncn3)CC2)cc1
73 | 990 s | COc1ccc(-c2noc(CS(=O)(=O)c3ccc(C)cc3)n2)cc1OC
74 | 999 s | O=C(NCc1ccco1)c1ccc2c(c1)CCCN2S(=O)(=O)c1ccc(Cl)cc1
75 | 845 s | Cc1nn(-c2ccccc2)c2c1N(CC(=O)NC(C)c1ccccc1)C(=O)CS2 (configuration not stated)
76 | 784 s | Cc1cc(S(=O)(=O)N2CCC(n3cnnc3C3CC3)CC2)ccc1Cl
77 | 798 s | Cc1ccc(N2CCC(NC(=O)c3ccc(C#N)cc3)C2=O)cc1 (configuration not stated)
78 | 801 s | Cc1ccccc1NS(=O)(=O)c1cc2c(=O)n(C)ncn2c1
79 | 843 s | O=C(Cn1ccn2nc(-c3ccc(F)cc3)c(CO)c2c1=O)Nc1cc(F)ccc1F
80 | 791 s | CC(NC(=O)CCCN1C(=O)CCn2nc(-c3cn(C)c4ccccc34)cc21)c1ccccc1 (configuration not stated)
81 | 741 s | Cc1cc(C)c(S(=O)(=O)Nc2ccc(-c3ccc4nnc(C)n4n3)cc2)cc1C
82 | 801 s | Cc1cc(C)cc(NC(=O)C2CC(=O)N(c3ccc4oc(C)nc4c3)C2)c1 (configuration not stated)
83 | 810 s | Cc1cc(C(=O)Nc2ccc(F)c(F)c2)nc2cc(-c3ccco3)nn12
84 | 726 s | Cc1oc2ccn(Cc3ccccc3F)c(=O)c2c1C(=O)NCc1cccc(F)c1
85 | 966 s | COc1ccc(-c2noc(Cc3nnc(-c4ccc(Cl)cc4)o3)n2)cc1OC
86 | 1090 s | COc1ccc(N2CCN(S(=O)(=O)c3cc(-c4csc(C)n4)sc3C)CC2)cc1
87 | 1130 s | CCc1nc(-c2csc(S(=O)(=O)N3CCCC(C(=O)Nc4cc(Cl)ccc4C)C3)c2)no1 (configuration not stated)
